Measurements published in patent US12390470B2, “1-methylxanthine-based bioactive composition and method of use thereof” (Ingenious Ingredients, LP, priority 2021, dated 2025).

Columns and labels:
[1] = test system: male Swiss Albino mice; experiment: Forelimb grip strength test; type: in vivo
Protocol: Twenty-four 8-week-old male Swiss Albino mice were housed in an animal room at a constant temperature (22±3° C.) and humidity (30%-70%) under a 12:12 h light-dark cycle with standard laboratory diet (Purina 5L79, Rat and Mouse 18% protein; PMI Nutrition International, Brentwood, MO, USA). Distilled water was provided ad libitum. All animal experiments were reviewed and approved by the Institutional Animal Ethical Committee (IAEC) of Radiant Research Services Pvt. Ltd (Bangalore, India). All research was conducted in accordance with the guidelines of the committee for the purpose of control and supervision of experiments on animals.
After one week of acclimation, the animals were randomly divided by body weight into three groups (n=8 per group in each test) for oral treatment once a day, at approximately same time each day (±1 hour), for 28 consecutive days: (1) vehicle control or (2) 1-methylxanthine or (3) 1-methylxanthine plus paraxanthine. The dose administered to the mice was calculated using US Food and Drug Administration for human equivalence doses (HED), assuming a human weight of 60 kg. The following HED was used in this study: 100 mg 1-methylxanthine (Ingenious Ingredients, L.P Lewisville, TX, USA; mouse dose: 20.5 mg/kg bw/day), or 100 mg 1-methylxanthine (Ingenious Ingredients, L.P Lewisville, TX, USA; mouse dose: 20.5 mg/kg bw/day) plus 100 mg paraxanthine (ENFINITY™, Ingenious Ingredients, L.P Lewisville, TX, USA; mouse dose: 20.5 mg/kg bw/day). 0.5% Carboxy Methyl Cellulose sodium was used as vehicle and the test item formulations were prepared daily. […] Food intake was monitored daily while water intake was ad libitum. BW was recorded weekly. […]
The forelimb grip strength was measured on day 0 and day 28 by using a stainless-steel grill to assess muscle strength (Orchid Scientific & Innovative India Pvt Ltd, India). Grip strength was measured one hour after treatment. […] Each animal performed three independent trials and the mean of the three trials was calculated and recorded.

[2] = test system: participants; experiment: Diastolic blood pressure, crossover vs caffeine; type: in vivo, human
Protocol: All supplements were orally ingested with 8 fluid ounces of cold tap water. Resting Heart Rate, Systolic and Diastolic Blood Pressure was measured at baseline, 30, 60, 90, 120 and 180 minutes after ingestion.

[3] = test system: participants; experiment: Respiratory quotient, placebo-controlled crossover; type: in vivo, human
Protocol: All supplements were orally ingested with 8 fluid ounces of cold tap water. The order of administration for all interventions was randomized using a random allocation software to ensure randomization and to avoid order effects. After ingestion, participants completed all assessments in an identical fashion 30, 60, 90, 120, and 180 minutes after ingestion of their assigned supplement. All study visits took place between 0600-1000 hours. At least 72 hours of rest will take place between each condition.
The lower the RQ, the more fat that is being oxidized for body energy needs. The closer to 1.0 the more carbohydrate is being burned for energy needs. If numbers are lower more fat is being oxidized.

[4] = Person one, time 0, 200 mg oral
[5] = Person two, time 0, 200 mg oral

With Cn1c(=O)[nH]c2nc[nH]c2c1=O [1-methylxanthine, 1-Methyl-3H-purine-2,6-dione] the Forelimb grip strength ([1]; baseline) was 91.1±1.3 gf, the “changes in strength greater than control” value ([1]; baseline to day 28) was 15.9% and the Forelimb grip strength ([1]; day 28, oral 20.5 mg/kg bw/day each, 28 days, with exercise training) was 126.9±6.0 gf. The “diastolic blood pressure reduced in comparison to CA” value ([2]; 200 mg oral) was 12%, the “Diastolic Blood Pressure MEAN (30-180)” value ([2]; Average) was 70.6 mm Hg and the “Diastolic Blood Pressure Mean Δ from 0” value ([2]; Average) was −1.4 mm Hg. For the same molecule, the “Diastolic Blood Pressure MEAN (30-180)” value ([2]; Person one) was 71.6 mm Hg, the “Diastolic Blood Pressure Mean Δ from 0” value ([2]; Person one) was −0.4 mm Hg and the “Diastolic Blood Pressure Δ vs. CA” value ([2]; Person one) was −5.0 mm Hg. The “Diastolic Blood Pressure” value ([2]; Person one, 30 min) was 71 mm Hg, the “Diastolic Blood Pressure” value ([2]; Person one, 60 min) was 68 mm Hg and the “Diastolic Blood Pressure” value ([2]; Person one, 90 min) was 69 mm Hg. The “Diastolic Blood Pressure” value ([2]; Person one, 120 min) was 71 mm Hg, the “Diastolic Blood Pressure” value ([2]; Person one, 180 min) was 79 mm Hg and the “Diastolic Blood Pressure” value [2, 4] was 72 mm Hg. The “Diastolic Blood Pressure MEAN (30-180)” value ([2]; Person two) was 69.6 mm Hg, the “Diastolic Blood Pressure Mean Δ from 0” value ([2]; Person two) was −2.4 mm Hg and the “Diastolic Blood Pressure Δ vs. CA” value ([2]; Person two) was −12.2 mm Hg. For the same molecule, the “Diastolic Blood Pressure” value ([2]; Person two, 30 min) was 79 mm Hg, the “Diastolic Blood Pressure” value ([2]; Person two, 60 min) was 62 mm Hg and the “Diastolic Blood Pressure” value ([2]; Person two, 90 min) was 70 mm Hg. For the same molecule, the “Diastolic Blood Pressure” value ([2]; Person two, 120 min) was 72 mm Hg, the “Diastolic Blood Pressure” value ([2]; Person two, 180 min) was 65 mm Hg and the “Diastolic Blood Pressure” value [2, 5] was 72 mm Hg. The “respiratory quotient reduced compared to placebo” value ([3]; 200 mg oral) was 15%, the “greater fat loss than CA” value ([3]; 200 mg oral, from respiratory quotient) was 2.3% and the “Respiratory Quotient MEAN (30-180)” value ([3]; Average) was 0.685. The “Respiratory Quotient MEAN (30-180)” value ([3]; Person one) was 0.676, the “Respiratory Quotient” value ([3]; Person one, 30 min after ingestion) was 0.69 and the “Respiratory Quotient” value ([3]; Person one, 60 min) was 0.66. The “Respiratory Quotient” value ([3]; Person one, 90 min) was 0.67, the “Respiratory Quotient” value ([3]; Person one, 120 min) was 0.69 and the “Respiratory Quotient” value ([3]; Person one, 180 min) was 0.67. For the same molecule, the “Respiratory Quotient” value [3, 4] was 0.67, the “Respiratory Quotient MEAN (30-180)” value ([3]; Person two) was 0.694 and the “Respiratory Quotient” value ([3]; Person two, 30 min) was 0.72. The “Respiratory Quotient” value ([3]; Person two, 60 min) was 0.71, the “Respiratory Quotient” value ([3]; Person two, 90 min) was 0.66 and the “Respiratory Quotient” value ([3]; Person two, 120 min) was 0.68. For the same molecule, the “Respiratory Quotient” value ([3]; Person two, 180 min) was 0.70 and the “Respiratory Quotient” value [3, 5] was 0.70.
